Test system: 266295-075-R-J1-PDC spheroid viability
Assay: Anticancer human tumor 266295-075-R-J1-PDC patient-derived head and neck squamous carcinoma cell line growth inhibition [POLQ]
Conditions: spheroids with HUVEC and MSC; for IC50: curve of first compound; for viability, T/C: stronger effect = lower value; active = viability on the fitted dose curve at most 10% of control; inactive = the rest
Outline: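 Complex spheroid viability model combining PDC tumour cells with endothelial (HUVEC) and MSC stromal cells. Novobiocin, ART-558 or RP6685 were tested singly and in combination with standard and investigational anticancer drugs. Each was titrated in half-log steps from near clinical Cmax, or from 10 microM where Cmax was unknown.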
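Note: spheroids exposed to compounds for seven days before readout.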

CC(=O)O[C@H]1C(=O)[C@@]2(C)[C@H]([C@H](OC(=O)c3ccccc3)[C@]3(O)C[C@H](OC(=O)[C@H](O)[C@@H](NC(=O)c4ccccc4)c4ccccc4)C(C)=C1C3(C)C)[C@]1(OC(C)=O)CO[C@@H]1C[C@@H]2O + COC1C(OC(N)=O)C(O)C(Oc2ccc3c(O)c(NC(=O)c4ccc(O)c(CC=C(C)C)c4)c(=O)oc3c2C)OC1(C)C
> 3 µM: IC50 (second compound 0.0316 µM) | IC50 (second compound 0.1 µM) | IC50 (second compound 0.316 µM) | IC50 (second compound 1 µM) | IC50 (second compound 3.16 µM) | IC50 (second compound 10 µM)
inactive: viability, T/C (second compound 0.0316 µM, first compound 0.00949 µM) 79.5% | viability, T/C (second compound 0.0316 µM, first compound 0.03 µM) 69.1% | viability, T/C (second compound 0.0316 µM, first compound 0.0949 µM) 63.3% | viability, T/C (second compound 0.0316 µM, first compound 0.3 µM) 86.2% | viability, T/C (second compound 0.0316 µM, first compound 0.949 µM) 75.6% | viability, T/C (second compound 0.0316 µM, first compound 3 µM) 71.3% | viability, T/C (second compound 0.1 µM, first compound 0.00949 µM) 92.3% | viability, T/C (second compound 0.1 µM, first compound 0.03 µM) 79% | viability, T/C (second compound 0.1 µM, first compound 0.0949 µM) 61.2% | viability, T/C (second compound 0.1 µM, first compound 0.3 µM) 73.2% | viability, T/C (second compound 0.1 µM, first compound 0.949 µM) 78.1% | viability, T/C (second compound 0.1 µM, first compound 3 µM) 69% | viability, T/C (second compound 0.316 µM, first compound 0.00949 µM) 93.6% | viability, T/C (second compound 0.316 µM, first compound 0.03 µM) 73.4% | viability, T/C (second compound 0.316 µM, first compound 0.0949 µM) 66.5% | viability, T/C (second compound 0.316 µM, first compound 0.3 µM) 67.4% | viability, T/C (second compound 0.316 µM, first compound 0.949 µM) 72.1% | viability, T/C (second compound 0.316 µM, first compound 3 µM) 81.2% | viability, T/C (second compound 1 µM, first compound 0.00949 µM) 76.9% | viability, T/C (second compound 1 µM, first compound 0.03 µM) 70% | viability, T/C (second compound 1 µM, first compound 0.0949 µM) 67.8% | viability, T/C (second compound 1 µM, first compound 0.3 µM) 80.7% | viability, T/C (second compound 1 µM, first compound 0.949 µM) 77.3% | viability, T/C (second compound 1 µM, first compound 3 µM) 65% | viability, T/C (second compound 3.16 µM, first compound 0.00949 µM) 81.9% | viability, T/C (second compound 3.16 µM, first compound 0.03 µM) 83.6% | viability, T/C (second compound 3.16 µM, first compound 0.0949 µM) 62.5% | viability, T/C (second compound 3.16 µM, first compound 0.3 µM) 75.5% | viability, T/C (second compound 3.16 µM, first compound 0.949 µM) 71.3% | viability, T/C (second compound 3.16 µM, first compound 3 µM) 75.2% | viability, T/C (second compound 10 µM, first compound 0.00949 µM) 85.6% | viability, T/C (second compound 10 µM, first compound 0.03 µM) 72.3% | viability, T/C (second compound 10 µM, first compound 0.0949 µM) 62.8% | viability, T/C (second compound 10 µM, first compound 0.3 µM) 60.5% | viability, T/C (second compound 10 µM, first compound 0.949 µM) 75.5% | viability, T/C (second compound 10 µM, first compound 3 µM) 74.7%

COc1cccc2c1C(=O)c1c(O)c3c(c(O)c1C2=O)CC(O)(C(=O)CO)CC3OC1CC(N)C(O)C(C)O1 (centres undefined) + COC1C(OC(N)=O)C(O)C(Oc2ccc3c(O)c(NC(=O)c4ccc(O)c(CC=C(C)C)c4)c(=O)oc3c2C)OC1(C)C
3.17 µM: IC50 (second compound 0.0316 µM)
3.72 µM: IC50 (second compound 10 µM)
2.16 µM: IC50 (second compound 3.16 µM)
2.56 µM: IC50 (second compound 0.1 µM)
3.45 µM: IC50 (second compound 0.316 µM)
2.64 µM: IC50 (second compound 1 µM)
active: viability, T/C (second compound 0.0316 µM, first compound 10 µM) 2.47% | viability, T/C (second compound 0.1 µM, first compound 10 µM) 2.16% | viability, T/C (second compound 0.316 µM, first compound 10 µM) 2.49% | viability, T/C (second compound 1 µM, first compound 10 µM) 2.7% | viability, T/C (second compound 3.16 µM, first compound 10 µM) 2.41% | viability, T/C (second compound 10 µM, first compound 10 µM) 1.87%
inactive: viability, T/C (second compound 0.0316 µM, first compound 0.0316 µM) 95.5% | viability, T/C (second compound 0.0316 µM, first compound 0.1 µM) 104% | viability, T/C (second compound 0.0316 µM, first compound 0.316 µM) 82.4% | viability, T/C (second compound 0.0316 µM, first compound 1 µM) 75.8% | viability, T/C (second compound 0.0316 µM, first compound 3.16 µM) 51.8% | viability, T/C (second compound 0.1 µM, first compound 0.0316 µM) 107% | viability, T/C (second compound 0.1 µM, first compound 0.1 µM) 96% | viability, T/C (second compound 0.1 µM, first compound 0.316 µM) 74.2% | viability, T/C (second compound 0.1 µM, first compound 1 µM) 74.7% | viability, T/C (second compound 0.1 µM, first compound 3.16 µM) 50.4% | viability, T/C (second compound 0.316 µM, first compound 0.0316 µM) 102% | viability, T/C (second compound 0.316 µM, first compound 0.1 µM) 96% | viability, T/C (second compound 0.316 µM, first compound 0.316 µM) 76.7% | viability, T/C (second compound 0.316 µM, first compound 1 µM) 74.8% | viability, T/C (second compound 0.316 µM, first compound 3.16 µM) 61.4% | viability, T/C (second compound 1 µM, first compound 0.0316 µM) 103% | viability, T/C (second compound 1 µM, first compound 0.1 µM) 91.4% | viability, T/C (second compound 1 µM, first compound 0.316 µM) 77% | viability, T/C (second compound 1 µM, first compound 1 µM) 64.6% | viability, T/C (second compound 1 µM, first compound 3.16 µM) 57.5% | viability, T/C (second compound 3.16 µM, first compound 0.0316 µM) 98.8% | viability, T/C (second compound 3.16 µM, first compound 0.1 µM) 90.4% | viability, T/C (second compound 3.16 µM, first compound 0.316 µM) 78.4% | viability, T/C (second compound 3.16 µM, first compound 1 µM) 68.7% | viability, T/C (second compound 3.16 µM, first compound 3.16 µM) 42.3% | viability, T/C (second compound 10 µM, first compound 0.0316 µM) 99.5% | viability, T/C (second compound 10 µM, first compound 0.1 µM) 83.1% | viability, T/C (second compound 10 µM, first compound 0.316 µM) 83.1% | viability, T/C (second compound 10 µM, first compound 1 µM) 75% | viability, T/C (second compound 10 µM, first compound 3.16 µM) 62.2%

Reference: PubChem BioAssay AID1963853 (Molecular Pharmacology Branch, DTP, NCI, 2024)
